Ki data for 27 molecules are collected here from ChEMBL document CHEMBL1136785, “Design and structure-activity relationships of 2-alkyl-3-aminomethyl-6-(3-methoxyphenyl)-7-methyl-8-(2-fluorobenzyl)imidazolo[1,2-a]pyrimid-5-ones as potent GnRH receptor antagonists” (J Med Chem, 2003).

Molecules are shown by their SMILES.

The target in the assay is T1, Gonadotropin-releasing hormone receptor (Homo sapiens, UniProt P30968).
T1 sequence (P30968 whole entry): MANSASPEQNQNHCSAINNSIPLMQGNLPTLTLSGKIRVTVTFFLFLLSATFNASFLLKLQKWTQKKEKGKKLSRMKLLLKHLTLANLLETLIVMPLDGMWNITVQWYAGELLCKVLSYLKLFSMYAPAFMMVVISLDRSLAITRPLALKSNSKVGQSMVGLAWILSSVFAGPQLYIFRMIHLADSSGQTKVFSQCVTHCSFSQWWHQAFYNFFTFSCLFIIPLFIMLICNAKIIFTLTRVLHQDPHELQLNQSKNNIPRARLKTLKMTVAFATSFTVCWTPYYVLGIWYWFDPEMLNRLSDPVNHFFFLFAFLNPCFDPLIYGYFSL
In words: Binding affinity against human gonadotropin-releasing hormone receptor.

Molecule `COc1cccc(-c2c(C)n(Cc3ccccc3F)c3nc(C(C)(C)C)c(CNCc4ccccc4)n3c2=O)c1` displayed a Ki of 240 nM.

Consider `COc1cccc(-c2c(C)n(Cc3ccccc3F)c3nc4c(n3c2=O)CN(CCc2ccccn2)CC4(C)C)c1`, for which the affinity corresponds to a Ki of 12000 nM.

In turn, `COCCN(C)Cc1c(C(C)(C)C)nc2n(Cc3ccccc3F)c(C)c(-c3cccc(OC)c3)c(=O)n12` yielded a Ki of 430 nM.

Consider `COC(=O)C(C)(C)c1nc2n(Cc3ccccc3F)c(C)c(-c3cccc(OC)c3)c(=O)n2c1CN(C)CCc1ccccn1`, for which the Ki was 1.2 nM.

Regarding `COc1cccc(-c2c(C)n(Cc3ccccc3F)c3nc(C(C)(C)C)c(CNCC4CCCCC4)n3c2=O)c1`, the Ki is 430 nM.

Molecule `COc1cccc(-c2c(C)n(Cc3ccccc3F)c3nc(C(C)(C)C)c(CNCC4CCCC4)n3c2=O)c1` came in with a Ki of 6400 nM.

`COC(=O)C(C)(C)c1nc2n(Cc3ccccc3F)c(C)c(-c3cccc(OC)c3)c(=O)n2c1CN(C)Cc1ccccn1` registered a Ki of 4.2 nM.

In turn, `COC(=O)C(C)(C)c1nc2n(Cc3ccccc3F)c(C)c(-c3cccc(OC)c3)c(=O)n2c1CN1CCc2ccccc2C1` gave a Ki of 9200 nM.

As for `COc1cccc(-c2c(C)n(Cc3ccccc3F)c3nc(C(C)(C)CO)c(CN(C)Cc4ccccn4)n3c2=O)c1`, the inhibition constant (Ki) was 8 nM.

On to `COc1cccc(-c2c(C)n(Cc3ccccc3F)c3nc(C(C)(C)C)c(CN(C)CCc4ccccc4)n3c2=O)c1`, for which the affinity corresponds to a Ki of 190 nM.

In the case of `COC(=O)C(C)(C)c1nc2n(Cc3ccccc3F)c(C)c(-c3cccc(OC)c3)c(=O)n2c1CN1CCC(c2ccccc2)CC1`, the Ki was found to be 5100 nM.

Molecule `COCCN(C)Cc1c(C(C)(C)C(=O)OC)nc2n(Cc3ccccc3F)c(C)c(-c3cccc(OC)c3)c(=O)n12` came in with a Ki of 300 nM.

The molecule `COc1cccc(-c2c(C)n(Cc3ccccc3F)c3nc(C(C)(C)C)c(CNCCc4ccccn4)n3c2=O)c1` came in with a Ki of 160 nM.

Molecule `COC(=O)C(C)(C)c1nc2n(Cc3ccccc3F)c(C)c(-c3cccc(OC)c3)c(=O)n2c1CN(C)CCc1ccccc1` registered a Ki of 130 nM.

`COc1cccc(-c2c(C)n(Cc3ccccc3F)c3nc(C(C)(C)CNCCc4ccccn4)cn3c2=O)c1` yielded a Ki of 350 nM.

For `COc1cccc(-c2c(C)n(Cc3ccccc3F)c3nc(C(C)(C)C)c(CN(C)Cc4ccccc4)n3c2=O)c1`, the Ki was found to be 72 nM.

For the molecule `COC(=O)C(C)(C)c1nc2n(Cc3ccccc3F)c(C)c(-c3cccc(OC)c3)c(=O)n2c1CN(C)Cc1cccnc1`, the Ki worked out at 400 nM.

On to `CCN(CC)CCN(C)Cc1c(C(C)(C)C)nc2n(Cc3ccccc3F)c(C)c(-c3cccc(OC)c3)c(=O)n12`, for which the Ki is 260 nM.

In turn, `COc1cccc(-c2c(C)n(Cc3ccccc3F)c3nc(C(C)(C)C)c(CN(C)C)n3c2=O)c1` had a Ki of 1700 nM.

Consider `COc1cccc(-c2c(C)n(Cc3ccccc3F)c3nc(C(C)(C)C)c(CN(C)Cc4ccccn4)n3c2=O)c1`, for which the affinity, expressed as Ki, was 11 nM.

Consider `CCCCN(C)Cc1c(C(C)(C)C(=O)OC)nc2n(Cc3ccccc3F)c(C)c(-c3cccc(OC)c3)c(=O)n12`, for which the Ki turned out to be 320 nM.

For the molecule `COc1cccc(-c2c(C)n(Cc3ccccc3F)c3nc(C(C)(C)C)c(CNCc4ccccn4)n3c2=O)c1`, affinity was put at a Ki of 30 nM.

Take `COc1cccc(-c2c(C)n(Cc3ccccc3F)c3nc(C(C)(C)C)c(CN(C)CCc4ccccn4)n3c2=O)c1`: the Ki was found to be 5.2 nM.

`COC(=O)C(C)(C)c1nc2n(Cc3ccccc3F)c(C)c(-c3cccc(OC)c3)c(=O)n2c1CN(C)Cc1ccccc1`: affinity was put at a Ki of 59 nM.

`COC(=O)C(C)(C)c1nc2n(Cc3ccccc3F)c(C)c(-c3cccc(OC)c3)c(=O)n2c1CN1CCN(C)CC1`: the Ki came to 7700 nM.

`COC(=O)C(C)(C)c1nc2n(Cc3ccccc3F)c(C)c(-c3cccc(OC)c3)c(=O)n2c1CN(C)Cc1ccccc1O`: the affinity corresponds to a Ki of 490 nM.

`CCN(CCc1ccccn1)Cc1c(C(C)(C)C)nc2n(Cc3ccccc3F)c(C)c(-c3cccc(OC)c3)c(=O)n12` gave a Ki of 7.9 nM.
